Measurements from PubChem BioAssay (NCI).
Where “and” joins values, the source holds several entries; their conditions need not be identical. Equal entries are not always repeated.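 Growth conditions: 96-well plates. Treatment: test compound, 48 hours, 5 concentrations. Analysis: linear interpolation between bracketing concentrations; unreached endpoints set to highest concentration. GI50 = concentration required for 50% inhibition of growth. TGI is the concentration that stops growth completely.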

Experiments:
Assay in all cases: NCI tumour cell line growth inhibition, 48 h
[1] = tested on: HCT-15 colon
[2] = tested on: 786-0 renal
[3] = tested on: MOLT-4 leukemia
[4] = tested on: MALME-3M melanoma
[5] = tested on: SR leukemia
[6] = tested on: IGROV1 ovarian
[7] = tested on: MDA-MB-435
[8] = tested on: TK-10 renal
[9] = tested on: PC-3 prostate
[10] = tested on: SN12C renal
[11] = tested on: SF-295 CNS
[12] = tested on: UO-31 renal
[13] = tested on: OVCAR-4 ovarian
[14] = tested on: NCI-H522 lung
[15] = tested on: CAKI-1 renal
[16] = tested on: M14 melanoma
[17] = tested on: OVCAR-8 ovarian
[18] = tested on: KM12 colon
[19] = tested on: HL-60(TB) leukemia
[20] = tested on: BT-549 breast
[21] = tested on: HT29 colon
[22] = tested on: A549 NSCLC
[23] = tested on: CCRF-CEM leukemia
[24] = tested on: OVCAR-5 ovarian
[25] = tested on: MCF7 breast
[26] = tested on: K-562 leukemia
[27] = tested on: COLO 205 colon
[28] = tested on: DU-145 prostate
[29] = tested on: A498 renal
[30] = tested on: NCI-H460 lung
[31] = tested on: NCI-H23 lung
[32] = tested on: RPMI-8226 leukemia
[33] = tested on: SK-MEL-28 melanoma
[34] = tested on: HS 578T breast
[35] = tested on: MDA-MB-231 breast
[36] = tested on: UACC-257 melanoma
[37] = tested on: OVCAR-3 ovarian
[38] = tested on: NCI-H226 lung
[39] = tested on: ACHN renal
[40] = tested on: SW-620 colon
[41] = tested on: RXF 393 renal
[42] = tested on: LOX IMVI melanoma
[43] = tested on: SF-268 CNS
[44] = tested on: EKVX NSCLC
[45] = tested on: HCT-116 colon
[46] = tested on: HCC-2998 colon
[47] = tested on: SNB-19 CNS
[48] = tested on: UACC-62 melanoma
[49] = tested on: HOP-62 NSCLC

## Cc1ccnc2[nH]c(-c3cccc4ccccc34)cc(=O)c12
[1]
  GI50: 15.2 nM
  TGI: > 100000 nM
[2]
  TGI: > 100000 nM
[3]
  TGI: > 100000 nM
[4]
  TGI: 47.4 nM
[5]
  TGI: 34800 nM
[6]
  GI50: 58.5 nM
  TGI: 50000 nM
[7]
  TGI: 0.495 nM
[8]
  GI50: 25800 nM
  TGI: > 100000 nM
[9]
  GI50: 19.9 nM
[10]
  GI50: 678 nM
  TGI: > 100000 nM
[11]
  GI50: 10.7 nM
  TGI: > 100000 nM
[12]
  GI50: 36.8 nM
  TGI: 53800 nM
[13]
  GI50: 17600 nM
  TGI: > 100000 nM
[14]
  TGI: 7.58 nM and 47.1 nM
[15]
  TGI: > 100000 nM
[16]
  GI50: 13.2 nM
  TGI: > 100000 nM
[17]
  GI50: 16.9 nM
  TGI: 16000 nM
[18]
  TGI: 3850 nM
[19]
  TGI: 6.97 nM
[20]
  TGI: 72000 nM
[21]
  TGI: 78.5 nM and 62.8 nM
[22]
  GI50: 13.2 nM
  TGI: > 100000 nM
[23]
  TGI: > 100000 nM
[24]
  GI50: 81.3 nM
  TGI: > 100000 nM
[25]
  GI50: 43.1 nM
  TGI: 28000 nM
[26]
  TGI: 63900 nM
[27]
  GI50: 15 nM
  TGI: 99.2 nM and 205 nM
[28]
  GI50: 28.4 nM
  TGI: > 100000 nM
[29]
  TGI: 68.1 nM
[30]
  TGI: > 100000 nM
[31]
  GI50: 31.5 nM
  TGI: > 100000 nM
[32]
  TGI: 28600 nM
[33]
  TGI: 40200 nM
[34]
  GI50: 17.3 nM
  TGI: 92700 nM
[35]
  GI50: 65.6 nM
  TGI: 6800 nM
[36]
  TGI: > 100000 nM
[37]
  TGI: 11.5 nM
[38]
  TGI: 33900 nM
[39]
  GI50: 39 nM
  TGI: > 100000 nM
[40]
  TGI: > 100000 nM
[41]
  TGI: > 100000 nM
[42]
  TGI: 17100 nM
[43]
  GI50: 15800 nM
  TGI: > 100000 nM
[44]
  GI50: 15.1 nM
  TGI: 34600 nM
[45]
  TGI: 14200 nM
[46]
  GI50: 101 nM
  TGI: 363 nM and 707 nM
[47]
  TGI: > 100000 nM
[48]
  TGI: 26500 nM
[49]
  GI50: 7390 nM
  TGI: > 100000 nM
